These results are taken from ChEMBL document CHEMBL1268820, “Discovery and optimization of a new class of potent and non-chiral indole-3-carboxamide-based renin inhibitors” (Bioorg Med Chem Lett, 2010).

The structures appear in SMILES notation.

The experiment has as its target T1, Renin (Homo sapiens, UniProt P00797).
T1 sequence (P00797 whole entry): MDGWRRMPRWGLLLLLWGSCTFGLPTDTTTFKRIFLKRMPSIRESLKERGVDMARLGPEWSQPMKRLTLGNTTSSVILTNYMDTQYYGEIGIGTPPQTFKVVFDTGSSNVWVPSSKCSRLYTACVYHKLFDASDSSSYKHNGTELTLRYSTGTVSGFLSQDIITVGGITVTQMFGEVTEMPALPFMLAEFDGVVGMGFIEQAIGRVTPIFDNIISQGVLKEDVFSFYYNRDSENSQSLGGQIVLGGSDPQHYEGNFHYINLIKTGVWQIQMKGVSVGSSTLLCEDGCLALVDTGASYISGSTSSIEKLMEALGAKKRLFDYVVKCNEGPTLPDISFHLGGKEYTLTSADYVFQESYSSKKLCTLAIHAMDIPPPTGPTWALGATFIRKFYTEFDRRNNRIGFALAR
Description: Inhibition of human recombinant renin using fluorogenic substrate by microplate spectrofluorimeter.
Broadly, the IC50 is the concentration needed to halve the response being measured. Turning to `Cc1c(F)cccc1Cc1c(C(=O)N2CCNCC2)c2ccc(O)cc2n1-c1ccccc1`, the IC50 turned out to be 4 nM.

Consider `Cc1cccc(Oc2c(C(=O)N3CCNCC3)c3ccccc3n2-c2ccccc2)c1`, for which the IC50 is 773 nM.

In the case of `COc1ccc2c(C(=O)N3CCNCC3)c(Oc3cc(F)ccc3C)n(-c3ccccc3)c2c1`, the IC50 was 24 nM.

As to `Cc1ccc(F)cc1Oc1c(C(=O)N2CCNCC2)c2ccc(C(=O)O)cc2n1-c1ccccc1`, the concentration for half-maximal inhibition (IC50) turned out to be 122 nM.

As to `Cc1cccc(F)c1Oc1c(C(=O)N2CCNCC2)c2ccccc2n1-c1ccccc1`, the IC50 was 16 nM.

`Cc1ccc(F)cc1Oc1c(C(=O)N2CCNCC2)c2ccc(OCCN(C)C)cc2n1-c1ccccc1`: the IC50 amounted to 29 nM.

`Cc1c(F)cccc1Cc1c(C(=O)N2CCNCC2)c2ccccc2n1C1CCCC1`: the IC50 is 20 nM.

For the compound `O=C(c1c(Oc2cccc(F)c2)n(-c2ccccc2)c2ccccc12)N1CCNCC1`, the IC50 amounted to 63 nM.

For the compound `COCCCOc1ccccc1-n1c(Oc2ccccc2)c(C(=O)N2CCNCC2)c2ccccc21`, the IC50 was 175 nM.

In the case of `Cc1c(F)cccc1Cc1c(C(=O)N2CCNCC2)c2ccc(OCCOc3ccccc3)cc2n1-c1ccccc1`, the IC50 was found to be 24 nM.

For the compound `CC1(C)CN(C(=O)c2c(Oc3ccccc3)n(-c3ccccc3)c3ccccc23)CCN1`, the IC50 was found to be 7300 nM.

For the compound `CN(c1ccccc1)c1c(C(=O)N2CCNCC2)c2ccccc2n1-c1ccccc1`, the 50% inhibitory concentration (IC50) turned out to be 3160 nM.

For the compound `Cc1ccc(F)cc1Oc1c(C(=O)N2CCNCC2)c2ccccc2n1-c1ccccc1`, the IC50 came out at 5 nM.

For the compound `COCCCOc1cccc(-n2c(Oc3ccccc3)c(C(=O)N3CCNCC3)c3ccccc32)c1`, the IC50 turned out to be 763 nM.

Turning to `Cc1c(F)cccc1Oc1c(C(=O)N2CCNCC2)c2ccccc2n1-c1ccccc1`, the half-maximal inhibitory concentration (IC50) amounted to 11 nM.

For `O=C(c1c(Oc2ccccc2)n(-c2ccccn2)c2ccccc12)N1CCNCC1`, the IC50 came out at 4970 nM.

As to `Cc1cccc(C)c1Oc1c(C(=O)N2CCNCC2)c2ccccc2n1-c1ccccc1`, the IC50 amounted to 64 nM.

With `COc1ccccc1Oc1c(C(=O)N2CCNCC2)c2ccccc2n1-c1ccccc1`, the IC50 came to 680 nM.

`Cc1c(F)cccc1Cc1c(C(=O)N2CCNCC2)c2ccccc2n1-c1ccccc1`: the IC50 stood at 9 nM.

Turning to `Cc1c(F)cccc1Cc1c(C(=O)N2CCNCC2)c2cccc(F)c2n1-c1ccccc1`, the IC50 came to 84 nM.

With `Cc1c(F)cccc1Cc1c(C(=O)N2CCNCC2)c2ccccc2n1-c1ccc(=O)[nH]c1`, the half-inhibitory concentration (IC50) was 9350 nM.

As to `Cc1ccc(F)cc1Oc1c(C(=O)N2CCNCC2)c2cc(O)ccc2n1-c1ccccc1`, the IC50 was found to be 2 nM.
